According to patent US6872690B2, “Herbicidal 2-alkynyl-pyri (mi) dines” (WYETH, priority 2001, dated 2005):

Key:
Type in all cases: in vivo
Glycine max [1] = experiment: Pre-emergence test; details: 3 weeks after treatment
Procedure, shortened: (§1)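 Pre-em soil spray on prepared horticultural loam just after sowing; acetone stock + 0.4% alkylphenol ethoxylate, water-diluted; 0.013–0.400 kg/ha, 900 L/ha spray volume. Scored vs untreated sown pots at 2–4 wk.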

Alopecurus myosuroides [2] = experiment: Pre-emergence test; details: 3 weeks after treatment
Procedure, shortened: as §1

Cassia obtusifolia = experiment: Pre-emergence test; details: 3 weeks after treatment
Procedure, shortened: as §1

Setaria viridis [3] = experiment: Pre-emergence test; details: 3 weeks after treatment
Procedure, shortened: as §1

Ambrosia artemisifolia [4] = experiment: Pre-emergence test; details: 3 weeks after treatment
Procedure, shortened: as §1

Triticum aestivum [5] = experiment: Pre-emergence test; details: 3 weeks after treatment
Procedure, shortened: as §1

Ipomoea hederacea [6] = experiment: Pre-emergence test; details: 3 weeks after treatment
Procedure, shortened: as §1

Zea mays [7] = experiment: Pre-emergence test; details: 3 weeks after treatment
Procedure, shortened: as §1

Abutilon theophrasti [8] = experiment: Pre-emergence test; details: 3 weeks after treatment
Procedure, shortened: as §1

Matricaria inodora [9] = experiment: Pre-emergence test; details: 3 weeks after treatment
Procedure, shortened: as §1

Echinochloa crus-galli [10] = experiment: Pre-emergence test; details: 3 weeks after treatment
Procedure, shortened: as §1

Glycine max [11] = experiment: Post-emergence herbicidal activity test; details: 2-4 weeks after treatment
Procedure, shortened: (§2)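 First, acetone solutions of each compound are diluted with water; next, the formulation is sprayed on emerged seedlings at rates equivalent to roughly 0.025 to 0.4 kg/ha per pot; finally, after 2 to 4 weeks of routine greenhouse care, plants are examined and rated.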

Alopecurus myosuroides [12] = experiment: Post-emergence herbicidal activity test; details: 2-4 weeks after treatment
Procedure, shortened: as §2

Setaria viridis [13] = experiment: Post-emergence herbicidal activity test; details: 2-4 weeks after treatment
Procedure, shortened: as §2

Ambrosia artemisifolia [14] = experiment: Post-emergence herbicidal activity test; details: 2-4 weeks after treatment
Procedure, shortened: as §2

Triticum aestivum [15] = experiment: Post-emergence herbicidal activity test; details: 2-4 weeks after treatment
Procedure, shortened: as §2

Ipomoea hederacea [16] = experiment: Post-emergence herbicidal activity test; details: 2-4 weeks after treatment
Procedure, shortened: as §2

Zea mays [17] = experiment: Post-emergence herbicidal activity test; details: 2-4 weeks after treatment
Procedure, shortened: as §2

Abutilon theophrasti [18] = experiment: Post-emergence herbicidal activity test; details: 2-4 weeks after treatment
Procedure, shortened: as §2

Matricaria inodora [19] = experiment: Post-emergence herbicidal activity test; details: 2-4 weeks after treatment
Procedure, shortened: as §2

Echinochloa crus-galli [20] = experiment: Post-emergence herbicidal activity test; details: 2-4 weeks after treatment
Procedure, shortened: as §2

Galium aparine = experiment: Pre-emergence test; details: 0.400 kg/ha, 3 weeks after treatment
Procedure, shortened: as §1

Stellaria media = experiment: Pre-emergence test; details: 0.400 kg/ha, 3 weeks after treatment
Procedure, shortened: as §1

Orysa sativa = experiment: Pre-emergence test; details: 0.400 kg/ha, 3 weeks after treatment
Procedure, shortened: as §1

Lamium purpureum = experiment: Pre-emergence test; details: 0.400 kg/ha, 3 weeks after treatment
Procedure, shortened: as §1

Digitaria sanguinalis = experiment: Pre-emergence test; details: 0.400 kg/ha, 3 weeks after treatment
Procedure, shortened: as §1

Cc1cc(C#Cc2ccc(F)cc2)nc(Oc2cc(C(F)(F)F)nn2C)c1 [Example 2, 4-methyl-6-(4-fluorophenylethynyl)-2-(1-methyl-3-trifluoromethylpyrazol-5-yloxy)-pyridine]
Assessment (pre-emergence application) GLXMA (Glycine max [1]; 0.013 kg/ha): 0 (0-No effect)
Assessment (pre-emergence application) GLXMA (Glycine max [1]; 0.025 kg/ha): 1 (1-Trace effect)
Assessment (pre-emergence application) GLXMA (Glycine max [1]; 0.100 kg/ha): 2 (2-Slight effect)
Assessment (pre-emergence application) GLXMA (Glycine max [1]; 0.400 kg/ha): 3 (3-Moderate effect)
Assessment (pre-emergence application) ALOMY (Alopecurus myosuroides [2]; 0.013 kg/ha): 1 (1-Trace effect)
Assessment (pre-emergence application) ALOMY (Alopecurus myosuroides [2]; 0.025 kg/ha): 2 (2-Slight effect)
Assessment (pre-emergence application) ALOMY (Alopecurus myosuroides [2]; 0.100 kg/ha): 5 (5-Definite injury)
Assessment (pre-emergence application) ALOMY (Alopecurus myosuroides [2]; 0.400 kg/ha): 8 (8-Approaching complete kill)
Assessment (pre-emergence application) CASOB (Cassia obtusifolia; 0.013 kg/ha): 0 (0-No effect)
Assessment (pre-emergence application) CASOB (Cassia obtusifolia; 0.025 kg/ha): 1 (1-Trace effect)
Assessment (pre-emergence application) CASOB (Cassia obtusifolia; 0.100 kg/ha): 3 (3-Moderate effect)
Assessment (pre-emergence application) CASOB (Cassia obtusifolia; 0.400 kg/ha): 7 (7-Good herbicidal effect)
Assessment (pre-emergence application) SETVI (Setaria viridis [3]; 0.013 kg/ha): 3 (3-Moderate effect)
Assessment (pre-emergence application) SETVI (Setaria viridis [3]; 0.025 kg/ha): 4 (4-Injury)
Assessment (pre-emergence application) SETVI (Setaria viridis [3]; 0.100 kg/ha): 8 (8-Approaching complete kill)
Assessment (pre-emergence application) SETVI (Setaria viridis [3]; 0.400 kg/ha): 9 (9-Complete kill)
Assessment (pre-emergence application) MBEL (Ambrosia artemisifolia [4]; 0.013 kg/ha): 0 (0-No effect)
Assessment (pre-emergence application) MBEL (Ambrosia artemisifolia [4]; 0.025 kg/ha): 2 (2-Slight effect)
Assessment (pre-emergence application) MBEL (Ambrosia artemisifolia [4]; 0.100 kg/ha): 6 (6-Herbicidal effect)
Assessment (pre-emergence application) MBEL (Ambrosia artemisifolia [4]; 0.400 kg/ha): 9 (9-Complete kill)
Assessment (pre-emergence application) TRZWA (Triticum aestivum [5]; 0.013 kg/ha): 0 (0-No effect)
Assessment (pre-emergence application) TRZWA (Triticum aestivum [5]; 0.025 kg/ha): 0 (0-No effect)
Assessment (pre-emergence application) TRZWA (Triticum aestivum [5]; 0.100 kg/ha): 2 (2-Slight effect)
Assessment (pre-emergence application) TRZWA (Triticum aestivum [5]; 0.400 kg/ha): 4 (4-Injury)
Assessment (pre-emergence application) IPOHE (Ipomoea hederacea [6]; 0.013 kg/ha): 0 (0-No effect)
Assessment (pre-emergence application) IPOHE (Ipomoea hederacea [6]; 0.025 kg/ha): 1 (1-Trace effect)
Assessment (pre-emergence application) IPOHE (Ipomoea hederacea [6]; 0.100 kg/ha): 2 (2-Slight effect)
Assessment (pre-emergence application) IPOHE (Ipomoea hederacea [6]; 0.400 kg/ha): 6 (6-Herbicidal effect)
Assessment (pre-emergence application) ZEAMX (Zea mays [7]; 0.013 kg/ha): 0 (0-No effect)
Assessment (pre-emergence application) ZEAMX (Zea mays [7]; 0.025 kg/ha): 0 (0-No effect)
Assessment (pre-emergence application) ZEAMX (Zea mays [7]; 0.100 kg/ha): 1 (1-Trace effect)
Assessment (pre-emergence application) ZEAMX (Zea mays [7]; 0.400 kg/ha): 2 (2-Slight effect)
Assessment (pre-emergence application) ABUTH (Abutilon theophrasti [8]; 0.013 kg/ha): 0 (0-No effect)
Assessment (pre-emergence application) ABUTH (Abutilon theophrasti [8]; 0.025 kg/ha): 1 (1-Trace effect)
Assessment (pre-emergence application) ABUTH (Abutilon theophrasti [8]; 0.100 kg/ha): 2 (2-Slight effect)
Assessment (pre-emergence application) ABUTH (Abutilon theophrasti [8]; 0.400 kg/ha): 3 (3-Moderate effect)
Assessment (pre-emergence application) MATIN (Matricaria inodora [9]; 0.013 kg/ha): 1 (1-Trace effect)
Assessment (pre-emergence application) MATIN (Matricaria inodora [9]; 0.025 kg/ha): 5 (5-Definite injury)
Assessment (pre-emergence application) MATIN (Matricaria inodora [9]; 0.100 kg/ha): 9 (9-Complete kill)
Assessment (pre-emergence application) MATIN (Matricaria inodora [9]; 0.400 kg/ha): 9 (9-Complete kill)
Assessment (pre-emergence application) ECHCG (Echinochloa crus-galli [10]; 0.013 kg/ha): 1 (1-Trace effect)
Assessment (pre-emergence application) ECHCG (Echinochloa crus-galli [10]; 0.025 kg/ha): 2 (2-Slight effect)
Assessment (pre-emergence application) ECHCG (Echinochloa crus-galli [10]; 0.100 kg/ha): 6 (6-Herbicidal effect)
Assessment (pre-emergence application) ECHCG (Echinochloa crus-galli [10]; 0.400 kg/ha): 7 (7-Good herbicidal effect)
Post-emergence application GLXMA (Glycine max [11]; 0.025 kg/ha): 4 (4-Injury)
Post-emergence application GLXMA (Glycine max [11]; 0.100 kg/ha): 5 (5-Definite injury)
Post-emergence application GLXMA (Glycine max [11]; 0.400 kg/ha): 7 (7-Good herbicidal effect)
Post-emergence application ALOMY (Alopecurus myosuroides [12]; 0.025 kg/ha): 2 (2-Slight effect)
Post-emergence application ALOMY (Alopecurus myosuroides [12]; 0.100 kg/ha): 3 (3-Moderate effect)
Post-emergence application ALOMY (Alopecurus myosuroides [12]; 0.400 kg/ha): 5 (5-Definite injury)
Post-emergence application SETVI (Setaria viridis [13]; 0.025 kg/ha): 4 (4-Injury)
Post-emergence application SETVI (Setaria viridis [13]; 0.100 kg/ha): 7 (7-Good herbicidal effect)
Post-emergence application SETVI (Setaria viridis [13]; 0.400 kg/ha): 9 (9-Complete kill)
Post-emergence application AMBEL (Ambrosia artemisifolia [14]; 0.025 kg/ha): 2 (2-Slight effect)
Post-emergence application AMBEL (Ambrosia artemisifolia [14]; 0.100 kg/ha): 5 (5-Definite injury)
Post-emergence application AMBEL (Ambrosia artemisifolia [14]; 0.400 kg/ha): 7 (7-Good herbicidal effect)
Post-emergence application TRZWA (Triticum aestivum [15]; 0.025 kg/ha): 2 (2-Slight effect)
Post-emergence application TRZWA (Triticum aestivum [15]; 0.100 kg/ha): 2 (2-Slight effect)
Post-emergence application TRZWA (Triticum aestivum [15]; 0.400 kg/ha): 3 (3-Moderate effect)
Post-emergence application IPOHE (Ipomoea hederacea [16]; 0.025 kg/ha): 7 (7-Good herbicidal effect)
Post-emergence application IPOHE (Ipomoea hederacea [16]; 0.100 kg/ha): 7 (7-Good herbicidal effect)
Post-emergence application IPOHE (Ipomoea hederacea [16]; 0.400 kg/ha): 9 (9-Complete kill)
Post-emergence application ZEAMX (Zea mays [17]; 0.025 kg/ha): 1 (1-Trace effect)
Post-emergence application ZEAMX (Zea mays [17]; 0.100 kg/ha): 2 (2-Slight effect)
Post-emergence application ZEAMX (Zea mays [17]; 0.400 kg/ha): 2 (2-Slight effect)
Post-emergence application ABUTH (Abutilon theophrasti [18]; 0.025 kg/ha): 2 (2-Slight effect)
Post-emergence application ABUTH (Abutilon theophrasti [18]; 0.100 kg/ha): 6 (6-Herbicidal effect)
Post-emergence application ABUTH (Abutilon theophrasti [18]; 0.400 kg/ha): 8 (8-Approaching complete kill)
Post-emergence application MATIN (Matricaria inodora [19]; 0.025 kg/ha): 2 (2-Slight effect)
Post-emergence application MATIN (Matricaria inodora [19]; 0.100 kg/ha): 5 (5-Definite injury)
Post-emergence application MATIN (Matricaria inodora [19]; 0.400 kg/ha): 8 (8-Approaching complete kill)
Post-emergence application ECHCG (Echinochloa crus-galli [20]; 0.025 kg/ha): 3 (3-Moderate effect)
Post-emergence application ECHCG (Echinochloa crus-galli [20]; 0.100 kg/ha): 4 (4-Injury)
Post-emergence application ECHCG (Echinochloa crus-galli [20]; 0.400 kg/ha): 8 (8-Approaching complete kill)

Cc1cc(C#C[Si](C)(C)C)nc(Oc2cc(C(F)(F)F)nn2C)c1 [Example 14]
Assessment (pre-emergence application) GLXMA (Glycine max [1]; 0.400 kg/ha): 2 (2-Slight effect)
Assessment (pre-emergence application) ALOMY (Alopecurus myosuroides [2]; 0.400 kg/ha): 7 (7-Good herbicidal effect)
Assessment (pre-emergence application) GALAP (Galium aparine): 1 (1-Trace effect)
Assessment (pre-emergence application) CASOB (Cassia obtusifolia; 0.400 kg/ha): 3 (3-Moderate effect)
Assessment (pre-emergence application) SETVI (Setaria viridis [3]; 0.400 kg/ha): 5 (5-Definite injury)
Assessment (pre-emergence application) MBEL (Ambrosia artemisifolia [4]; 0.400 kg/ha): 9 (9-Complete kill)
Assessment (pre-emergence application) STEME (Stellaria media): 9 (9-Complete kill)
Assessment (pre-emergence application) ORYSA (Orysa sativa): 0 (0-No effect)
Assessment (pre-emergence application) TRZWA (Triticum aestivum [5]; 0.400 kg/ha): 1 (1-Trace effect)
Assessment (pre-emergence application) IPOHE (Ipomoea hederacea [6]; 0.400 kg/ha): 1 (1-Trace effect)
Assessment (pre-emergence application) ZEAMX (Zea mays [7]; 0.400 kg/ha): 1 (1-Trace effect)
Assessment (pre-emergence application) ABUTH (Abutilon theophrasti [8]; 0.400 kg/ha): 0 (0-No effect)
Assessment (pre-emergence application) MATIN (Matricaria inodora [9]; 0.400 kg/ha): 8 (8-Approaching complete kill)
Assessment (pre-emergence application) ECHCG (Echinochloa crus-galli [10]; 0.400 kg/ha): 5 (5-Definite injury)
Assessment (pre-emergence application) LAMPU (Lamium purpureum): 9 (9-Complete kill)
Assessment (pre-emergence application) DIGSA (Digitaria sanguinalis): 9 (9-Complete kill)
Post-emergence application GLXMA (Glycine max [11]; 0.200 kg/ha): 4 (4-Injury)
Post-emergence application ALOMY (Alopecurus myosuroides [12]; 0.200 kg/ha): 3 (3-Moderate effect)
Post-emergence application SETVI (Setaria viridis [13]; 0.200 kg/ha): 3 (3-Moderate effect)
Post-emergence application AMBEL (Ambrosia artemisifolia [14]; 0.200 kg/ha): 3 (3-Moderate effect)
Post-emergence application TRZWA (Triticum aestivum [15]; 0.200 kg/ha): 1 (1-Trace effect)
Post-emergence application IPOHE (Ipomoea hederacea [16]; 0.200 kg/ha): 8 (8-Approaching complete kill)
Post-emergence application ZEAMX (Zea mays [17]; 0.200 kg/ha): 1 (1-Trace effect)
Post-emergence application ABUTH (Abutilon theophrasti [18]; 0.200 kg/ha): 1 (1-Trace effect)
Post-emergence application MATIN (Matricaria inodora [19]; 0.200 kg/ha): 5 (5-Definite injury)
Post-emergence application ECHCG (Echinochloa crus-galli [20]; 0.200 kg/ha): 1 (1-Trace effect)
